From patent US6503923B1, “Haloalkoxy imidazonaphthyridines” (ALTANA Pharma AG, priority 1999, dated 2003)

Tests used:
[1] = test system: pentagastrin-stimulated acid secretion of perfused rat stomachs; assay: Antisecretory action in perfused rat stomachs (pentagastrin-stimulated acid secretion in vivo); conditions: anesthetized CD rat, female, dose 3 μmol/kg i.v., perfused stomach
Source text: Testing of the Antisecretory Action in Perfused Rat Stomachs
The influence of the compounds according to the invention after intravenous administration on the pentagastrin-stimulated acid secretion of perfused rat stomachs in vivo is shown in Table A which follows.
The abdomen of anesthetized rates (CD rat, female, 200-250 g; 1.5 g/kg i.m. urethane) was opened after tracheotomy by means of a median upper abdominal incision and a PVC catheter was fixed transorally in the esophagus and another via the pylorus such that the ends of the tubes just projected into the gastric lumen. The catheter leading from the pylorus led outwards into the right abdominal wall through a side opening.
After thorough rinsing (about 50-100 ml), warm physiological NcCl solution (37° C.) was continuously passed through the stomach (0.5 ml/min, pH 6.8-6.9, Braun-Unita I). The pH (pH meter 632, glass electrode EA 147; φ=5 mm, Metrohm) and, by titration with a freshly prepared 0.01 N NaOH solution to pH 7 (dosimat 665 Metrohm), the secreted HCl were determined in the effluent, in each case collected at an interval of 15 minutes.
The gastric secretion was stimulated by continuous infusion of […] (=1.65 ml/h) of i.v. pentagastrin (left femoral vein) about 30 min after the end of the operation (i.e. after determination of 2 preliminary fractions). […]

melting point: 178 to 180 °C
SMILES: Cc1nc2c3c(ccn2c1C)[C@@H](OCC(F)(F)F)[C@H](O)[C@@H](c1ccccc1)N3 [Example 1, (7R, 8R, 9R)-2,3-Dimethyl-8-hydroxy-7-(2,2,2-trifluoroethoxy)-9-phenyl-7,8,9,10-tetra-hydroimidazo[1,2-h][1,7]naphthyridine]
Inhibition of acid secretion [1]: 100%
